Laboratory results reported in ChEMBL document CHEMBL1149054, “Isolation and structure of harzianum A: a new trichothecene from Trichoderma harzianum” (J Nat Prod, 1994).
Calls of active or inactive are those of the source. No cut-off for these calls is given here.

Tests used:
[1] = Cytotoxicity against BHK cells upto 1 ug/ml; assay type: cell-based, Mesocricetus auratus; conditions: hamster
Escherichia coli = assay: Antimicrobial activity against Escherichia coli at 1 mg/ml; assay type: functional, organism-based
Micrococcus luteus = assay: Antimicrobial activity against Micrococcus luteus at 1 mg/ml; assay type: functional, organism-based
Staphylococcus aureus = assay: Antimicrobial activity against Staphylococcus aureus at 1 mg/ml; assay type: functional, organism-based

CC1=C[C@H]2O[C@@H]3C[C@@H](OC(=O)\C=C/C=C/C=C/C(=O)O)[C@](C)([C@@]2(C)CC1)[C@]31CO1 [HARZIANUM A]
Activity [1]: Non-toxic | Activity (Escherichia coli): inactive | Activity (Micrococcus luteus): inactive | Activity (Staphylococcus aureus): inactive
